Reference: patent publication US12428360B2, “Abating unwanted emulsion polymerization during extractive distillation of conjugated diene monomers” (ECOLAB USA INC., priority 2022, dated 2025)

Assay: Isoprene polymerization test at 95° C. in heptane (heptane phase, turbidity method)
Method: The commercial isoprene was passed through an alumina column to remove stabilizer 4-tert-butylcatechol. A 100 mL jar was charged with 0.2 g active polymerization inhibitor, 40 mL heptane, 40 mL DMF, and a stir bar. The above mixture was stirred at room temperature for 30 minutes and settled for 10 minutes.
Heptane phase: A 100 mL jar was charged with 5.0 mL top layer of previous settled two layers' mixture, 1 mL AIBN (0.0004 g/mL) solution, isoprene 50 g. Hexane was added to make a total weight of 100 g solution. About 13 ml of the above mixture was added to 12 pressure tubes with a stir bar and heated to 95° C. After 30 minutes, and every 30 minutes thereafter, two tubes were retrieved from the block and the polymerization reaction was quenched by cooling in an ice bath. The cooled polymer solutions were immediately diluted with toluene. The soluble polymer in the liquid was determined by turbidity method. Results can be seen in FIG. 2. The data used to generate the trend lines in FIG. 2 can be seen in Table 2.

In the case of CCC(C)Nc1ccc(NC(C)CC)cc1 (stereo not shown) [PDA, di-sec-butyl-4,4′-phenylenediamine], the “polymerization growth in Heptane phase (polyisoprene)” value (shortened to “polymerization growth”) (Time 0, AIBN initiator) was 0 w/w %, the “polymerization growth” value (Time 30 (minutes per method), AIBN initiator) was 0.10% w/w % and the “polymerization growth” value (Time 60 (minutes per method), AIBN initiator) was 0.24% w/w %. The “polymerization growth” value (Time 90 (minutes per method), AIBN initiator) was 0.45% w/w %, the “polymerization growth” value (Time 120 (minutes per method), AIBN initiator) was 0.83% w/w % and the “polymerization growth” value (Time 180 (minutes per method), AIBN initiator) was 1.05% w/w %. The “polymerization growth” value (Time 240 (minutes per method), AIBN initiator) was 1.20% w/w %.
